These molecules were tested against PIK3CA (human) (UniProt P42336) (assay: Assessment of PIK3CA Kinase Activity).
Chain of PIK3CA (human) (P42336 whole entry, looked up): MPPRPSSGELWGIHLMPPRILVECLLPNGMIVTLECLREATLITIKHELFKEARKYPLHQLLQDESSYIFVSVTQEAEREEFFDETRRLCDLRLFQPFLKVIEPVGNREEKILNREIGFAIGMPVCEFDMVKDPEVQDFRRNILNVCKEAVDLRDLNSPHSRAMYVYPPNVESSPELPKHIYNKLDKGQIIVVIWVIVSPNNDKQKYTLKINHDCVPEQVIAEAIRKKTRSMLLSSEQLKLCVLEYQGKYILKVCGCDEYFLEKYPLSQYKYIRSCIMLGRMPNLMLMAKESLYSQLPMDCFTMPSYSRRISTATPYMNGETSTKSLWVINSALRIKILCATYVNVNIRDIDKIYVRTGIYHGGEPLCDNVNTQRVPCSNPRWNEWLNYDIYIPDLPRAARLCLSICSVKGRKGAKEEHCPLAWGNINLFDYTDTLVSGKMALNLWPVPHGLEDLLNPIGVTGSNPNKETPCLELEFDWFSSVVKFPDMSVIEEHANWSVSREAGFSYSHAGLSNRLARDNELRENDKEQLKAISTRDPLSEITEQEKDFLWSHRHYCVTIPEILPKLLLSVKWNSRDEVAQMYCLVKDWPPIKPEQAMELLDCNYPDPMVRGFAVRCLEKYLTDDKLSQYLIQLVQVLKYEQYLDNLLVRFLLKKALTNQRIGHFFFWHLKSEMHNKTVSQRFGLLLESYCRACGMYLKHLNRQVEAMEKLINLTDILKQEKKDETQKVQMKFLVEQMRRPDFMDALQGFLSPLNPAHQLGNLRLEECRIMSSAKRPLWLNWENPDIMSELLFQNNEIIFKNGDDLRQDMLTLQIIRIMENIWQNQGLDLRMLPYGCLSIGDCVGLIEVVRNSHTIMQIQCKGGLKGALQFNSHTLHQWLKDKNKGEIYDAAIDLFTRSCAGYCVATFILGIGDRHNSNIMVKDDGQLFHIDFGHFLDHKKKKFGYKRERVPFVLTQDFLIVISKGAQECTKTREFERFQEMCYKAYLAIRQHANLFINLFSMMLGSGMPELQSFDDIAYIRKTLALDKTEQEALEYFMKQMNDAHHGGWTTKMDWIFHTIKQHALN

IC50, < 1 µM:
CNC(=O)Cn1ccnc1-c1cn2c(n1)-c1ccc(-c3cnn(CC(C)(C)O)c3)cc1OCC2
CC(C)n1ncnc1-c1cn2c(n1)-c1ccc(Br)cc1OCC2
CC(C)n1ncnc1-c1cn2c(n1)-c1cnc(N3CC=C[C@@H]3C(N)=O)cc1OCC2
CNC(=O)[C@@H]1CCCN1c1cc2c(cn1)-c1nc(-c3ncnn3C(C)C)cn1CCO2
Cc1nc(-c2cn3c(n2)-c2ccccc2OCC3)n(C(C)C)n1
CC(C)n1ncnc1-c1cn2c(n1)-c1ccc(C3CCOCC3)cc1OCC2
CC(C)(CO)NC(=O)c1ccc2c(c1)-c1nc(-c3nccn3-c3ccccc3Cl)cn1CCO2
Cc1nc(-c2cn3c(n2)-c2ccc(N4CCC[C@H]4C(N)=O)cc2OCC3)n(CC(F)(F)F)n1
CC(C)n1ncnc1-c1cn2c(n1)-c1ccc(O[C@@H](CCO)C(N)=O)cc1OCC2
CS(=O)(=O)CCN1CCC(CO)(c2ccc3c(c2)-c2nn(-c4ncnn4-c4ccc(F)cc4F)cc2CCO3)CC1
O=C(c1ccc2c(c1)-c1nc(-c3ncnn3CC(F)(F)F)cn1CCO2)N1CCOCC1
COc1ccc(CNc2cc3c(cn2)-c2nc(-c4ncnn4CC(F)(F)F)cn2CCO3)cc1OC
CC(C)n1nc(N)nc1-c1cn2c(n1)-c1ccccc1OCC2
CC(C)(O)Cn1cc(-c2ccc3c(c2)OCCn2cc(C(=O)N4CCS(=O)(=O)CC4)nc2-3)cn1
CC(C)n1ncnc1-c1cn2c(n1)-c1ccc(N[C@@H](C)C(N)=O)cc1OCC2
CC(C)n1ncnc1-c1cn2c(n1)-c1cnc(N3CCNC(=O)C3)cc1OCC2
CCN(CC)CCn1cc(-c2ccc3c(c2)OCCn2cc(-c4ncnn4C(C)C)nc2-3)cn1
CC(C)n1ncnc1-c1cn2c(n1)-c1ccc(NCC3(N)COC3)cc1OCC2
CC(C)n1ncnc1-c1cn2c(n1)-c1ccc(C3CN(CCS(=O)(=O)N(C)C)C3)cc1OCC2
CC(C)n1ncnc1-c1cn2c(n1)-c1ccc(N3CC(C(N)=O)C3)nc1OCC2
CCc1ccc2c(c1)OCCn1cc(-c3nc(C)nn3C(C)C)nc1-2
Cn1ccnc1C(O)CNc1cc2c(cn1)-c1nc(-c3ncnn3-c3ccc(F)cc3F)cn1CCO2 (configuration not stated)
CC(C)n1ncnc1-c1cn2c(n1)-c1cnc(N3CCC[C@@H]3C(N)=O)cc1OCC2
Cc1nc(-c2cn3c(n2)-c2ccc(OC4CC4)cc2OCC3)n(C(C)C)n1
CC(C)n1nc(N)nc1-c1cn2c(n1)-c1ccc(C#N)cc1OCC2
NC(=O)c1ccc2c(c1)OCCn1cc(-c3ncnn3-c3ccccc3Cl)nc1-2
COCc1nc(-c2cn3c(n2)-c2ccc(C4CCN(CC(N)=O)CC4)cc2OCC3)n(C(C)C)n1
CC(C)n1ncnc1-c1cn2c(n1)-c1ccc(O)cc1OCC2
OCCN1CCC(c2ccc3c(c2)-n2nc(-c4ncnn4CC(F)(F)F)cc2CCO3)CC1
CC(C)n1ncnc1-c1cc2n(n1)-c1cc(C3CNC3)ccc1OCC2
CC(C)n1ncnc1-c1cn2c(n1)-c1cnc(N[C@@H](C)C(N)=O)cc1OCC2
CC(C)n1ncnc1-c1cn2c(n1)-c1cnc(N3CCC(CO)CC3)cc1OCC2
CC(C)n1ncnc1-c1cc2n(n1)-c1cc(C3CN(CCO)C3)ccc1OCC2
CC(C)n1ncnc1-c1cn2c(n1)-c1ccc(C3CN(CC(=O)N(C)C)C3)cc1OCC2
Cc1nc(-c2cn3c(n2)-c2cnc(N4CC[C@H](O)[C@H]4C(N)=O)cc2OCC3)n(C(C)C)n1
Clc1ccccc1-n1ncnc1-c1cn2c(n1)-c1cc(-c3cncnc3)ccc1OCC2
CO[C@@H]1C[C@@H](C(N)=O)N(c2cc3c(cn2)-c2nc(-c4ncnn4C(C)C)cn2CCO3)C1
NC(=O)[C@H](CO)Oc1ccc2c(c1)OCCn1cc(-c3ncnn3CC(F)(F)F)nc1-2
Cc1cn(C(C)C)c(-c2cn3c(n2)-c2ccc(-c4cnn(CC(C)(C)O)c4)cc2OCC3)n1
CC(C)n1ncnc1-c1cn2c(n1)-c1cnc(N)cc1OCC2
CC(C)n1ncnc1-c1cc2n(n1)-c1cc(C(=O)Nc3cnn(CCO)c3)ccc1OCC2
CC(C)n1ncnc1-c1cn2c(n1)-c1ccc(=O)[nH]c1OCC2
CC(C)n1ncnc1-c1cn2c(n1)-c1cnc(N3CC[C@@H](O)C3)cc1OCC2
CC(C)n1ncnc1-c1cn2c(n1)-c1ccc(C3=NC(C)(C)CO3)cc1OCC2
Cc1nc(-c2cn3c(n2)-c2ccc(-c4cn[nH]c4)cc2OCC3)n(C(C)C)n1
CC(C)C(Oc1ccc2c(c1)OCCn1cc(-c3ncnn3CC(F)(F)F)nc1-2)C(N)=O (configuration not stated)
Cc1nc(-c2cn3c(n2)-c2ccc(CNCC(C)(C)O)cc2OCC3)n(-c2ccc(F)cc2F)n1
CC(C)n1ncnc1-c1cn2c(n1)-c1cnc(N3CC[C@H](C)[C@H]3C(N)=O)cc1OCC2
CC(C)[C@H](Oc1ccc2c(c1)OCCn1cc(-c3ncnn3CC(F)(F)F)nc1-2)C(N)=O
Cc1nc(-c2cn3c(n2)-c2ccc(OC4CCC4)cc2OCC3)n(C(C)C)n1
CC(C)n1ncnc1-c1cn2c(n1)-c1ccc(CC(=O)O)cc1OCC2
O=C(c1ccc2c(c1)-c1nc(-c3ncnn3CC(F)(F)F)cn1CCO2)N1CCN(CCO)CC1
Cc1nc(-c2cn3c(n2)-c2ccc(F)cc2OCC3)n(C(C)C)n1
CC(C)n1ncnc1-c1cn2c(n1)-c1ccc(C3CCN(CCS(=O)(=O)N(C)C)CC3)cc1OCC2
CC(C)n1ncnc1-c1cn2c(n1)-c1cnc(N3C[C@@H](O)C[C@H]3C(N)=O)cc1OCC2
Cc1nc(-c2cn3c(n2)-c2cnc(N4CCCC4CN4CCCCC4)cc2OCC3)n(CC(F)(F)F)n1 (configuration not stated)
Cc1nc(-c2cn3c(n2)-c2ccc(CCC(N)=O)cc2OCC3)n(C(C)C)n1
CC(C)n1ncnc1-c1cn2c(n1)-c1cnc(N3CCC(C)(C)[C@H]3C(N)=O)cc1OCC2
CC(Cc1ccc2c(c1)OCCn1cc(-c3ncnn3C(C)C)nc1-2)C(N)=O (configuration not stated)
Cc1nc(-c2cn3c(n2)-c2ccc(-c4cnn(CC(C)C(=O)O)c4)cc2OCC3)n(C(C)C)n1 (configuration not stated)
COC(=O)c1ccc2c(c1)OCCn1cc(-c3ncnn3C(C)C)nc1-2
CC(C)Oc1ccc2c(c1)OCCn1cc(-c3ncnn3C(C)C)nc1-2

Reference: the Kinase Knowledgebase extract (Sharma et al. 2016)
